# Measurements: PMC12439166, “Dietary flavonoids form supramolecular assemblies, alter biochemistry, and enhance cell resilience” (Frontiers in Nutrition, 2025)
# Experiments:
# Sirtuin-3 (SIRT3) = molecular target: T1, Sirtuin-3 (SIRT3) (Homo sapiens, UniProt Q9NTG7); test: Enzyme activity assay (SAMDI-MS), SIRT3; type: biochemical; settings: 10 concentrations, 5 nM to 100 μM, compounds incubated with enzyme 30 min, result in words
# T1 sequence (Q9NTG7 1-399): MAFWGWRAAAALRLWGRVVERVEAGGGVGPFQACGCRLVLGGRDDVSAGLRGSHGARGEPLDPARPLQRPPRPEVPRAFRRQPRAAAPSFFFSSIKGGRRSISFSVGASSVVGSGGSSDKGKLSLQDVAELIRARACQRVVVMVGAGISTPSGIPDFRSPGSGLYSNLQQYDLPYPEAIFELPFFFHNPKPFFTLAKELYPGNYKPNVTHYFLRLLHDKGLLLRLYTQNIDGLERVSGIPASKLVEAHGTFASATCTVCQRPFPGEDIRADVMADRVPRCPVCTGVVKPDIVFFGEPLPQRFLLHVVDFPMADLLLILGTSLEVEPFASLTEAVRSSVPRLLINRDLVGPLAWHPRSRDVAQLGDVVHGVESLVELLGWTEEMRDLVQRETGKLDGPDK
# Description: (§1) Enzyme screens were performed by SAMDI Tech (contract research organization); enzyme assays were performed in a 20 μL volume in 384-well low-volume polypropylene microtiter plates (Greiner Bio-One) at room temperature. The enzymes [Arginase 1 (ARG1), Lysine demethylase 4C (KDM4C), MAP/microtubule affinity-regulating kinase 4 (MARK4), Histone-Lysine N-methyltransferase (NSD2), Tyrosine-protein phosphatase non-receptor type 1 (PTP1B), and Sirtuin-3 (SIRT3)] were incubated with compounds for 30 min prior to initiation of the reaction by the addition of substrate and cofactors (if required). […] SAMDI MS was performed using reflector positive mode on an AB Sciex TOF-TOF 5800 System (AB Sciex, Framingham, MA) with 400 shots/spot analyzed in a random raster sampling. For data analysis, the area under the curves (AUCs) for the product peak and substrate peak were calculated using the TOF/TOF Series Explorer (AB Sciex), and the amount of product formed was calculated using the equation AUC product / (AUC product + AUC Substrate). […]
# (§2) IC50 values of enzyme inhibition. Inhibition of the enzymes was measured at 10 concentration values in the range of 5 nM to 100 μM for each compound and enzyme, with two technical replicates; the percent inhibition values were determined by SAMDI software. […]
# Arginase 1 (ARG1) = molecular target: T2, Arginase 1 (ARG1) (Homo sapiens, UniProt P05089); test: Enzyme activity assay (SAMDI-MS), Arginase 1; type: biochemical; settings: 10 concentrations, 5 nM to 100 μM, compounds incubated with enzyme 30 min, result in words
# T2 sequence (P05089 1-322): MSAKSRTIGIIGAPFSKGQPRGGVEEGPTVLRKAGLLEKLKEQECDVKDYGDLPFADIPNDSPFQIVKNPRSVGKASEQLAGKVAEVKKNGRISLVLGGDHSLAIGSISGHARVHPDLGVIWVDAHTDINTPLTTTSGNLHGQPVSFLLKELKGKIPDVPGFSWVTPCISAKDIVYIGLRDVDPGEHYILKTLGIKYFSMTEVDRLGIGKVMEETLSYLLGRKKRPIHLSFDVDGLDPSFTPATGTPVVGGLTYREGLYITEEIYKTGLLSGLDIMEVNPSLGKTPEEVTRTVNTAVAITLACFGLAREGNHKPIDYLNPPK
# Description: as §1, §2
smiles,measurement,setting,value
O=c1c(O)c(-c2ccc(O)c(O)c2)oc2cc(O)cc(O)c12 [quercetin],"inhibition of enzyme activity, SIRT3",Sirtuin-3 (SIRT3); listed as Quercetin,inhibited
same,"inhibition of enzyme activity, SIRT3",Sirtuin-3 (SIRT3); listed as Quercitin,concentration-dependent inhibition
same,"inhibition of enzyme activity, ARG1",Arginase 1 (ARG1); listed as Quercetin,inhibited
same,"inhibition of enzyme activity, ARG1",Arginase 1 (ARG1); listed as Quercitin,concentration-dependent inhibition
